{"source": "paper PMC4092069", "about": "“Structural and Functional Characterization of DUF1471 Domains of Salmonella Proteins SrfN, YdgH/SssB, and YahO” (PLoS ONE, 2014)", "molecules": {"B1": {"name": "SrfN (STM0082) of Salmonella enterica serovar Typhimurium LT2, processed form lacking the 21 N-termi (natural protein)", "chain": "AEQVSKQEISHFKLVKVGTINVSQSGGQISSPSDLREKLSELADAKGGKYYHIIAAREHGPNFEAVAEVYNDATK", "modifications": "uniform 15N or 13C,15N isotope labelling in the NMR samples", "notes": "also called StR109; SrfN dimer"}}, "key": {"[1]": {"target": "T1, SrfN (Salmonella enterica, UniProt Q7CR88)", "T1 construct": "gene STM0082; full-length synthetic gene in pGS-21a, C-terminal 6xHis tag kept, signal peptide (1-21) cleaved in E. coli, mature residues 22-96; 15N or 13C,15N labelled", "experiment": "2-D 1H-15N HSQC NMR titration, chemical shift perturbation", "format": "binding"}, "[2]": {"target": "T1, SrfN", "experiment": "2-D 1H-15N HSQC NMR titration, chemical shift perturbation", "format": "binding", "settings": "0.5 mM SrfN monomer, oxyanion site, weak"}, "[3]": {"target": "the molecule itself", "experiment": "SEC-MALS"}}, "note": "Structures can show the parent of a compound that is named as a salt."}
{"molecule": "O=S(=O)(O)OC[C@H]1O[C@@](COS(=O)(=O)O)(O[C@H]2O[C@H](COS(=O)(=O)O)[C@@H](OS(=O)(=O)O)[C@H](OS(=O)(=O)O)[C@H]2OS(=O)(=O)O)[C@@H](OS(=O)(=O)O)[C@@H]1OS(=O)(=O)O", "note": "[sucrose octasulfate]", "values": [{"measurement": "Kd", "setting": "[1]", "value": "< 500", "unit": "µM"}]}
{"molecule": "O=C(O)C1=C[C@H](O)[C@@H](OS(=O)(=O)O)[C@H](O[C@H]2[C@H](O)[C@@H](NS(=O)(=O)O)C(O)O[C@@H]2COS(=O)(=O)O)O1", "note": "(stereo partly drawn) [heparin disaccharide, α-ΔUA-2S-[1→4]-GlcNS-6S]", "values": [{"measurement": "2-D 1H-15N HSQC NMR titration, chemical shift perturbation", "setting": "[2]; 5 mM disaccharide (20:1 to dimer)", "value": "The interaction with heparin disaccharide appears to be somewhat weaker"}]}
{"molecule": "O=S(=O)(O)O", "note": "[sodium sulfate]", "values": [{"measurement": "2-D 1H-15N HSQC NMR titration, chemical shift perturbation", "setting": "[2]; neutral pH, 100-200 mM Na2SO4 (400-800:1 to dimer)", "value": "a region on the surface which interacts only weakly with sulfate ion at neutral pH"}]}
{"molecule": "B1", "values": [{"measurement": "stoichiometry N", "setting": "[3]", "value": 2}]}
